Measured values from US8658188B2, “Radio-opaque bioactive glass materials” (Universitat Zurich, priority 2009, dated 2014).

Assay: Radiopacity assessment against an aluminum step wedge
Assay type: physicochemical
Settings: paste in 0.9 wt % NaCl saline, 60% weight to volume, 1 mm thick, X-ray 65 kV, n=3
Text: According to Waltimo et al., 2009, J Dent Res, 88, 235-8, the amount of bioactive particles per volume plays an important role in the closed environment of a root canal. To achieve a denser packing of the naturally relatively light nanomaterial (low-density powder with snow-like behaviour), uniaxial pressure of 2.6 MPa was applied for 30 seconds. […] The thus improved filler was compared to classical (flame derived) bioactive particles (no bismuth), to mechanical mixtures of bioactive particles and barium sulphate (50/wt %) and bismuth oxide (80/20 wt %; 50/50 wt %). Calcium hydroxide with or without additional barium sulphate was used as commercially available control material. Bovine dentine slices with a thickness of 1 mm served as control for the clear distinction between material and the surrounding tissue in clinical situations. Prior to use, the corresponding powder was homogeneously mixed with unbuffered physiological saline (0.9 wt % NaCl) to obtain a final weight to volume ratio of 60% (plastic limit, i.e. the maximum amount of powder per liquid to yield a paste-like suspension). A radiograph was taken after preparing the paste and placing it in a polycarbonate mould (10 mm diameter, 1 mm thick). Specimens were placed on a radio-graphic film (Digora, Finland) together with an aluminum step-wedge with a variable thickness from 0.5 mm to 6 mm (0.5 mm and 1 mm increments). […]

[Ca+2].[OH-].[OH-] [calcium hydroxide, Calcium hydroxide]
aluminum equivalent (radiopacity): 0.6 mm
